Measured values from ChEMBL document CHEMBL5230118, “Therapeutic potential of uracil and its derivatives in countering pathogenic and physiological disorders” (Eur J Med Chem, 2020).

Tests used:
HT-29 = test: Antiproliferative activity against human HT-29 cells assessed as cell growth inhibition; type: functional, cell-based
COLO-320-HSR = test: Antiproliferative activity against human COLO 320HSR cells assessed as cell growth inhibition; type: functional, cell-based
DLD-1 = test: Antiproliferative activity against human DLD-1 cells assessed as cell growth inhibition; type: functional, cell-based
[1] = Bioavailability in human; type: ADME, organism-based; conditions: in vivo
in vivo = conditions: mouse
Human alphaherpesvirus 3 = test: Antiviral activity against clinical isolate VZV; type: functional, organism-based

O=c1[nH]c(=O)n([C@@H]2O[C@H](CO)[C@@H](O)[C@@H]2O)cc1F
IC50 (HT-29): 0.041 µM | IC50 (COLO-320-HSR): 0.023 µM | IC50 (DLD-1): 0.052 µM

Cn1c(=O)cc(N2CCC[C@@H](N)C2)n(Cc2ccccc2C#N)c1=O [ALOGLIPTIN]
bioavailability [1]: 75%

O=c1[nH]cc(F)c(=O)[nH]1 [FLUOROURACIL]
half-life (in vivo): 16 min

CC#Cc1cn([C@@H]2O[C@H](CO)[C@@H](O)[C@@H]2O)c(=O)[nH]c1=O [NETIVUDINE]
IC50 (Human alphaherpesvirus 3): 1 µM | bioavailability [1]: 25%
